Measured values reported in ChEMBL document CHEMBL5096148, “Natural Products with Potential to Treat RNA Virus Pathogens Including SARS-CoV-2” (J Nat Prod, 2021).
Values after ≈ are worked out from the molar mass of the structure shown.

Key:
Ebolavirus [1] = experiment: Antiviral activity against EBOV Kikwit by high-content image analysis; format: functional, organism-based; settings: Orthoebolavirus
Sudan ebolavirus = experiment: Antiviral activity against SUDV Boniface by high-content image analysis; format: functional
SARS-CoV [2] = experiment: Antiviral activity against SARS-Cov urbani by neutral red uptake analysis; format: functional, organism-based; settings: Severe acute respiratory syndrome-related coronavirus
Marburgvirus [3] = experiment: Antiviral activity against MARV musoke by high-content image analysis; format: functional, organism-based; settings: Orthomarburgvirus
[4] = tested on: Middle East respiratory syndrome-related coronavirus; experiment: Antiviral activity against MERS-CoV jordan N3 by high-content image analysis; format: functional, organism-based
dengue virus type 2 [5] = experiment: Antiviral activity against DENV2 new Guinea by neutral red uptake analysis; format: functional, organism-based
Ebolavirus [6] = experiment: Antiviral activity against EBOV infected in Vero E6 cells assessed as reduction in virus titer incubated for 5 days by immunofocus assay; format: functional, organism-based; settings: Orthoebolavirus, Vero C1008, 120 h
Ebolavirus [7] = experiment: Antiviral activity against EBOV infected in HMVEC cells; format: functional, organism-based; settings: Orthoebolavirus
dengue virus type 2 [8] = experiment: Antiviral activity against DENV-2 infected in Baby hamster BHK cells assessed as reduction in virus-induced cytopathic effect; format: functional, organism-based
Marburgvirus [9] = experiment: Antiviral activity against Marburg virus; format: functional, organism-based; settings: Orthomarburgvirus
Ebolavirus [10] = experiment: Antiviral activity against pseudo typed EBOV infected in human A549 cells assessed as inhibition of viral growth; format: functional, organism-based; settings: Orthoebolavirus
Ebolavirus [11] = experiment: Antiviral activity against pseudo typed EBOV infected in human HEK293T cells assessed as inhibition of viral growth; format: functional, organism-based; settings: Orthoebolavirus, HEK-293T
Ebolavirus [12] = experiment: Antiviral activity against EBOV infected in human A549 cells assessed as inhibition of viral growth; format: functional, organism-based; settings: Orthoebolavirus
Marburgvirus [13] = experiment: Antiviral activity against MARV infected in human A549 cells assessed as inhibition of viral growth; format: functional, organism-based; settings: Orthomarburgvirus
Ebolavirus [14] = experiment: Antiviral activity against EBOV; format: functional, organism-based; settings: Orthoebolavirus
dengue virus type 2 [15] = experiment: Antiviral activity against DENV2 infected in human A549 cells at 25 uM incubated for 24 hrs by plaque assay relative to control; format: functional
SARS-CoV [16] = experiment: Antiviral activity against SARS-CoV assessed as reduction in virus-induced cytopathic effect; format: functional, organism-based; settings: Severe acute respiratory syndrome-related coronavirus

SMILES: Nc1ncnc2c([C@@H]3N[C@H](CO)[C@@H](O)[C@H]3O)c[nH]c12
- EC50 (Ebolavirus [1]): 11.8 µM
- EC50 (Sudan ebolavirus): 3.4 µM
- EC50 (SARS-CoV [2]): 57.7 µM
- EC50 (Marburgvirus [3]): 4.4 µM
- EC50 [4]: 68.4 µM
- EC50 (dengue virus type 2 [5]): 32.8 µM

SMILES: NC(=O)c1nc(F)cnc1O
- IC50 (Ebolavirus [6]): 67 µM
- IC90 (Ebolavirus [6]; time 5 day): 110 µM

SMILES: CCC(CC)COC(=O)[C@H](C)N[P@](=O)(OC[C@H]1O[C@@](C#N)(c2ccc3c(N)ncnn23)[C@H](O)[C@@H]1O)Oc1ccccc1
- EC50 (Ebolavirus [7]): 0.06 µM

SMILES: CN[C@@H]1[C@@H](O)[C@H](O[C@@H]2[C@@H](O)[C@H](O[C@H]3O[C@H]([C@H](C)O)[C@@H](O)[C@H](O)[C@H]3N)[C@@H](N)C[C@H]2N)OC[C@]1(C)O
- EC50 (dengue virus type 2 [8]): 3 µg/mL (≈ 6.04 µM)

SMILES: C=C(C)O[C@@H]1[C@@H](OC(C)=O)[C@H](NC(=O)[C@]23CCC(C)(C)C[C@H]2C2=CC[C@@H]4[C@@]5(C)CCC(=O)C(C)(C)[C@@H]5CC[C@@]4(C)[C@]2(C)CC3=O)O[C@H](COC(C)=O)[C@@H]1OC(C)=O
- IC50 (Marburgvirus [9]): 2.29 µM
- IC50 (Ebolavirus [10]): 0.0592 µM

SMILES: C#CN(CCCC1(C)N=N1)C(=O)[C@]12CCC(C)(C)C[C@H]1C1=CC[C@@H]3[C@@]4(C)CCC(=O)C(C)(C)[C@@H]4CC[C@@]3(C)[C@]1(C)CC2=O
- IC50 (Marburgvirus [9]): 5.52 µM
- IC50 (Ebolavirus [11]): 0.467 µM

SMILES: O=c1oc2c(O)c(O)cc3c(=O)oc4c(O)c(O)cc1c4c23 [ELLAGIC ACID]
- IC50 (Ebolavirus [12]): 1.4 µM
- IC50 (Marburgvirus [13]): 6.4 µM

SMILES: C=CCc1ccc(O)c(OC)c1 [EUGENOL]
- EC50 (Ebolavirus [14]): 1.3 µM

SMILES: C[C@H](CC[C@H](O)[C@](C)(O)CO)[C@H]1CC[C@@]2(C)C3=CC[C@H]4C(C)(C)C(=O)CC[C@]4(C)C3=CC[C@]12C [GANODERMANONTRIOL]
- Activity (dengue virus type 2 [15]): 25%

SMILES: O[C@H]1[C@H]2c3cc4c(cc3CN3CCC(=C[C@@H]1O)[C@H]23)OCO4 [LYCORINE]
- EC50 (SARS-CoV [16]): 0.0157 µM
